We go through 6 molecules from paper PMC4795541, “A Rapid and Quantitative Flow Cytometry Method for the Analysis of Membrane Disruptive Antimicrobial Activity” (PLoS ONE, 2016).

One series relates to F. nucleatum ATCC 25586. Description: MDC, flow cytometry Syto9/PI membrane disruption assay. Format: cell-based, Fusobacterium nucleatum. Conditions: for MDC: F. nucleatum ATCC 25586, 90 min peptide/bacteria incubation, Syto9/PI flow cytometry, extrapolated to 100% PI+ cells, average of 3 assays ± SD; for Antimicrobial activity (MDC50): against F. nucleatum, maximum peptide concentration = 1000 µM. The source says:
We reasoned that as AMPs disrupt the cytoplasmic membrane we should be able to monitor this disruption using membrane permeable/impermeable fluorescent intercalating DNA dyes that are used to determine the viability of a microbial culture. We initially synthesised melittin (peptide sequence shown in S1 Table) a well characterised, broad-spectrum and potent AMP to investigate whether viability dyes, Syto9 (membrane permeable) and propidium iodide (PI, membrane impermeable), could be used to determine AMP activity, against the melittin-susceptible bacterium Fusobacterium nucleatum. […] Staining cells with 0.1% v/v Syto 9 in 0.9% […] (3.34mM stock solution) and 0.1% v/v PI in saline (50μg/mL stock solution) provided optimal concentrations that gave consistent and distinct cell populations; a membrane intact (Syto9+/PI-) and two membrane disrupted populations (Syto9+/PI+ and Syto9-/PI+; S1 Fig). […] Following from this we then incubated F. nucleatum with variant melittin concentrations and determined the proportion of membrane intact (Syto9+/PI-) and membrane disrupted (PI+ i.e. Syto9+/PI+ and Syto9-/PI+) populations. […] Linear regression of the PI+ values for the peptide concentrations prior to full membrane disruption (% PI+ cells ≤ 99% and ≥ 1–5%) gave an R^2 value of >0.9 and from extrapolation the minimum peptide concentration that induced 100% membrane disruption (MDC) could be determined (Fig 1c, insert). […] Melittin and magainin II are known to have high and low activities against the Gram positive bacterium Streptococcus mutans, respectively. […] Although the standard procedure is a 90 minute incubation of bacteria and AMP, we investigated whether the incubation time could be shortened.
For determination of MDC a 50 μL aliquot of the bacteria/AMP was mixed with 100 μL of 0.9% w/v saline containing 0.1% v/v of SYTO® 9 (3.34mM stock solution) and 0.1% v/v of PI (50μg/mL stock solution) and incubated for 10 minutes at room temperature in the dark. Following incubation the bacterial cell samples were analysed using a Cell Lab Quanta SC MPL flow cytometer (Beckman Coulter) equipped with a 100 W stabilized mercury arc lamp with wavelengths of 365, 404, and 435 nm, and a 488 nm diode laser. The fluorescence from SYTO® 9 was measured through a 525-nm band-pass filter (Fluorescent Channel 1, FL-1), and the red emission of PI was measured with a 670-nm long pass filter (Fluorescent Channel 3, FL-3). A minimum of 100,000 bacterial events were collected and the multi-parametric data analyzed using the Cell Lab Quanta SC software. NB for flow cytometers not fitted with an electrical volume detector for cell counting, the addition of microbeads to the samples can be used to determine cell numbers. MDC was calculated by plotting the percent PI+ cells for the each peptide concentration and fitting a linear curve to the data that is ≤ 99% PI+ cells and ≥ 1–5% PI+ cells (minimum of 4 data points). Inclusion of data points outside of these PI+ cell percentages will result in a positive or negative skewing of the MDC value. By solving the line equation (y = mx + C) for x (peptide concentration) when y = 1 (where 1 = 100% of PI+ cells) the MDC (x) can be determined i.e. MDC = x = (y − C)/m.

For series [1], the system named is HEK-293 (ATCC CRL-1573) cells. In words: Inhibition of cell proliferation assay (MTS). To be noted: for IC50: HEK-293 cells 5×10^3, EMEM + 10% FBS, 28 h, MTS, A490, linear regression, maximum peptide concentration = 1000 µM; for Therapeutic Index (proliferation): IC50/MDC50 (F. nucleatum), given as x : 1. The format is cell-based. Here is the method: After 28 h, 20 μL of 3-(4,5-dimethylthiazol-2-yl)-5-(3-carboxymethoxyphenyl)-2-(4-sulfophenyl)-2H-tetrazolium (MTS) solution (CellTiter 96 AQueous Non-Radioactive Cell Proliferation Assay kit, Promega) were added to each well and the plates were incubated for a further 1–2 h at 37°C, 5% CO2 incubator. Cell proliferation was determined by measuring absorbance at 490 nm using a microplate reader (PerkinElmer 1420 Multilabel Counter VICTOR3). Positive and negative controls for inhibition were taken as HEK-293 cells incubated with mytomycin C (5 μg/mL, Sigma Pty Ltd) and HEK-293 cells incubated in media alone, respectively. The percentage of inhibition was calculated using the following formula: % Inhibition = [(A490 test sample—A490 negative control) / (A490 positive control—A490 negative control)] × 100
The percentage of inhibition was plotted against peptide concentration and linear regression analysis was used to determine the AMP concentration needed to inhibit 50% (IC50) of the HEK-293 cells.

Marks after values point to notes of the source that are not given here. Where a SMILES comes first, the peptide text is derived from it. Where no end group is shown, it is not given here. [ ]: non-standard residue; d: D form. Phe(ol) = N[C@H](CO)Cc1ccccc1; Dab = NCC[C@H](N)C(=O)O; Dap = NC[C@H](N)C(=O)O; Aib = CC(C)(N)C(=O)O

One may read the IC50 as the concentration that inhibits the measured activity by half.

Regarding `CC(=O)NC(C)(C)C(=O)N1CCC[C@H]1C(=O)NC(C)(C)C(=O)N[C@@H](C)C(=O)NC(C)(C)C(=O)N[C@@H](C)C(=O)N[C@@H](CCC(N)=O)C(=O)NC(C)(C)C(=O)N[C@H](C(=O)NC(C)(C)C(=O)NCC(=O)N[C@@H](CC(C)C)C(=O)NC(C)(C)C(=O)N1CCC[C@H]1C(=O)N[C@H](C(=O)NC(C)(C)C(=O)NC(C)(C)C(=O)N[C@@H](CCC(=O)O)C(=O)N[C@@H](CCC(N)=O)C(=O)N[C@H](CO)Cc1ccccc1)C(C)C)C(C)C` [Alamethicin] (Ac-[Aib]P[Aib]A[Aib]AQ[Aib]V[Aib]GL[Aib]PV[Aib][Aib]EQ[Phe(ol)]; N-terminus assumed), the MDC in the series with F. nucleatum ATCC 25586 was 21.1 ± 4.1 µM.
On to `CC[C@H](C)[C@H](NC(=O)CN)C(=O)NCC(=O)N[C@@H](CCN)C(=O)N[C@@H](Cc1ccccc1)C(=O)N[C@@H](CC(C)C)C(=O)N[C@@H](Cc1c[nH]cn1)C(=O)N[C@@H](CO)C(=O)N[C@@H](C)C(=O)N[C@@H](CCN)C(=O)N[C@@H](CCN)C(=O)N[C@@H](Cc1ccccc1)C(=O)NCC(=O)N[C@@H](CCN)C(=O)N[C@@H](C)C(=O)N[C@@H](Cc1ccccc1)C(=O)N[C@H](C(=O)NCC(=O)N[C@@H](CCC(=O)O)C(=O)N[C@H](C(=O)N[C@@H](CCSC)C(=O)N[C@@H](CC(N)=O)C(=O)N[C@@H](CO)C(N)=O)[C@@H](C)CC)C(C)C` [Magainin-Dab] (H-GIG[Dab]FLHSA[Dab][Dab]FG[Dab]AFVGEIMNS-NH2; N-terminus assumed), for which, in series [1], the IC50 was determined as 178 ± 39.4 µM and the “Therapeutic Index (proliferation)” value is given as 32.4 : 1. In addition, in the series on F. nucleatum ATCC 25586, the MDC is 11.0 ± 1.0 µM and the “Antimicrobial activity (MDC50)” value was 5.5 ± 0.5 µM.
For `CC[C@H](C)[C@H](NC(=O)CN)C(=O)NCC(=O)N[C@@H](CN)C(=O)N[C@@H](Cc1ccccc1)C(=O)N[C@@H](CC(C)C)C(=O)N[C@@H](Cc1c[nH]cn1)C(=O)N[C@@H](CO)C(=O)N[C@@H](C)C(=O)N[C@@H](CN)C(=O)N[C@@H](CN)C(=O)N[C@@H](Cc1ccccc1)C(=O)NCC(=O)N[C@@H](CN)C(=O)N[C@@H](C)C(=O)N[C@@H](Cc1ccccc1)C(=O)N[C@H](C(=O)NCC(=O)N[C@@H](CCC(=O)O)C(=O)N[C@H](C(=O)N[C@@H](CCSC)C(=O)N[C@@H](CC(N)=O)C(=O)N[C@@H](CO)C(N)=O)[C@@H](C)CC)C(C)C` [Magainin-Dap] (H-GIG[Dap]FLHSA[Dap][Dap]FG[Dap]AFVGEIMNS-NH2; N-terminus assumed) the same measures were 285 ± 19.4 µM, 19.1 : 1, 29.8±6.9^c μM and 14.9 ± 3.5 µM.
“GIGKFLHSAKKFGKAFVGEIMNS-NH2 [Magainin II]”: in series [1], the IC50 amounted to 95.2 ± 32.2 µM and the “Therapeutic Index (proliferation)” value is recorded as 20.2 : 1.
As to “GIGRFLHSARRFGRAFVGEIMNS-NH2 [Magainin-Arg]”, in series [1], the IC50 is 64.5 ± 3 µM and the “Therapeutic Index (proliferation)” value is 25.8 : 1. Moreover, in the series on F. nucleatum ATCC 25586, the MDC is 4.9±0.2^c μM and the “Antimicrobial activity (MDC50)” value was 2.5 ± 0.1 µM.
For “GIGXFLHSAXXFGXAFVGEIMNS-CONH2 [Magainin-Orn, magainin II analogue, all lysine residues substituted with ornithine]” the same measures were 168 ± 42.1 µM, 29.4 : 1, 11.4 ± 0.3 µM and 5.7 ± 0.2 µM.
